Values of other authors, collected in patent publication US6818658B2, “Acylated piperidine derivatives as melanocortin-4 receptor agonists” (Merck & Co., Inc., priority 2001, dated 2004).

Experiments:
[1] = patients
[2] = injected intramuscularly or subcutaneously, males with psychogenic erectile dysfunction

Compound	duration of effect [1] [h]	onset of action ([1]; for sildenafil after an oral dose) [min]	response rate [2] [%]
Cc1ccc(N(CC2=NCCN2)c2cccc(O)c2)cc1 [phentolamine]	2	5 to 30	–
Ac-Nle-c[Asp-His-DPhe-Arg-Trp-Lys]-NH2 [MT-II]	–	–	75
